Results from US20210308138A1, “TISSUE TRANSGLUTAMINASE MODULATORS FOR MEDICINAL USE” (Aarhus Universitet, priority 2018, published 2021).

Key:
[1] = system: small subcutaneous arteries obtained from human biopsies; experiment: Direct relaxation of human small subcutaneous arteries; details: LDN-27219 10^−8-10^−5 mol/L; hypertensive patients
Description: Human subcutaneous arteries were obtained from fat biopsies of the gluteal region from both male and female patients (30-70 years of age) with essential hypertension.
For ‘ex vivo’ studies, animals were randomly selected and euthanized by cervical dislocation and exanguination. The mesenteric arteries were immediately extracted and placed in 4° C. physiological saline solution (PSS, pH=7.4) of the following composition (mmol/L): 119 NaCl, 4.7 KCl, 1.18 KH2PO4, 1.17 MgSO4, 1.5 CaCl2), 24.9 NaHCO3, 0.026 EDTA and 5.5 glucose and small mesenteric arteries (internal diameters of 200-300 μm) were isolated. Human subcutaneous arteries (internal diameters of 300-400 μm) were dissected from the biopsies in the same conditions mentioned above for the mesenteric bed from rodents.
Small human subcutaneous arteries were obtained from fat biopsies from the gluteal region of hypertensive patients and prepared as described in Example 1. Concentration-response curves for LDN-27219 were constructed as described in Example 4 (FIG. 5B) and relaxation measurements were performed as described in Example 1.

[2] = system: healthy male BKS(D)-Leprdb/JOrlRj heterozygous mice; experiment: Erectile function in vivo, peak intracavernosal pressure (PICP) over MAP; details: preliminary in vivo studies
[3] = system: diabetic male BKS(D)-Leprdb/JOrlRj homozygous mice; experiment: Long-term in vivo treatment of diabetic mice, endothelial function as acetylcholine-induced relaxation of small mesenteric arteries; details: LDN-27219 8 mg/kg/12 h IP for 3 weeks vs candesartan cilexetil 3 mg/kg/24 h in drinking water
Description: For long-term ‘in vivo’ experiments, stocks of LDN-27219 dissolved in PEG-400 were diluted in saline solution containing SBE-b-CD to improve solubility (9 mg/mL NaCl; 15% (w/v) SBE-b-CD) […], resulting in a final concentration of 2.00 mg/mL of LDN-27219 in 10% PEG-400/90%(15% (w/v) SBE-b-CD in saline solution). For the treatment on the drinking water 1 mg/ml Candesartan cilexetil was dissolved in a vehicle of polyethylene glycol 400 (10% v/v), ethanol (5% v/v), cremophor EL (2% v/v), and tap water (83% v/v) and the pH was adjusted to 9.0 with 0.5 mol/L Na2CO3 prior to dilution to the final concentration in tap water, as previously described (Seltzer A., et al., Brain Res., 2004, 1028(1), 9-18). Final concentrations needed to achieve the desired doses of candesartan cilexetil per day were determined by measuring water consumption each 3-4 days.
For long-term ‘in vivo’ studies, diabetic homozygous mice were randomly allocated into three groups: 1) treatment with Intraperitoneal (IP) injections of LDN-27219 (8 mg/kg/12 h) and vehicle drinking water [LDN-27219 treatment group], or 2) treatment with IP injections of vehicle (each 12 h) and candesartan cilexetil (3 mg/kg/24 h) in the drinking water [candesartan treatment group], or 3) treatment with IP injections of vehicle (each 12 h) and vehicle drinking water [vehicle treatment group]. […]

Male Wistar rats = experiment: Mean arterial pressure (MAP) in vivo measurement after intrajugular infusion
Description: For ‘in vivo’ experiments Wistar rats of different age were fasted 8 h before anesthesia with 35 mg/kg of S-ketamine and 50 mg/kg of pentobarbital sodium administered intraperitoneally.
Male Wistar rats with 12-14 and 30-35 weeks of age were anesthetized with s-ketamine (35 mg/kg) and pentobarbital (50 mg/kg) and placed on a heated blanket to maintain body temperature at 37° C. ECG needles were installed for electrocardiographic measurements and a solid state catheter (Millar Inc, Houston, USA) was introduced into the carotid artery to measure MAP. MAP and electrocardiographic data was continuously recorded on a computerized data acquisition system (PowerLab, ADInstruments). Adequate depth of anesthesia was checked periodically by the absence of the toe pinch withdrawal effect and ⅓ of the initial dose of anesthetics was administered intraperitoneally when needed (usually each 1½ h). Changes in MAP and electrocardiographic signal in response to intrajugular infusion during 3 minutes of different doses of LDN-27219 and the corresponding vehicle (PEG-400) were studied.
The Area Under the Curve (AUC) was calculated using Graphpad Prism 5.1 (GraphPad Software, San Diego, Calif., USA) for each response to the change in MAP that was collected during the experiments in example 3. The AUC gives information about the maximal response, and about the duration of the effect.
Rats of different age in these experiments were anesthetized, prepared and catheterized as described in Example 3.

NNC(=O)CSc1nc2scc(-c3ccccc3)c2c(=O)n1-c1ccccc1 [LDN-27219]
direct relaxation of human small subcutaneous arteries [1]: direct and dose-dependent relaxation
erectile function, peak intracavernosal pressure (PICP) over MAP [2]: increased erectile function
prevention of diabetes-related endothelial dysfunction [3]: able to prevent diabetes-related endothelial dysfunction better than the long-term treatment with angiotensin II receptor antagonist candesartan cilexetil
mean blood pressure (MAP) (Male Wistar rats; LDN-27219 0.1, 1.0 and 2.0 mg/kg, intrajugular infusion during 3 minutes, carotid artery): lowers the mean blood pressure
age dependence of antihypertensive effect (AUC of MAP) (Male Wistar rats; rats >30 weeks vs 12-14 weeks old): greater effect of LDN-27219 in older animals
